According to US20240197890A1, “FLAVONE DERIVATIVES AND USES IN TARGETING CK2-MEDIATED DISEASES AND CONDITIONS” (Salk Institute for Biological Studies, priority 2020, published 2024):

Assays:
IκB S32 = test: Immunoblot of IκB S32 in IL1-β-stimulated astrocytes; format: cell-based, human; conditions: after 5 hours
Description: Western blotting. […] Cells were dissociated with 1:1 Accutase:papain for 3 min at rt, pelleted for 5 min at 800 g, and washed twice with cold DPBS. Pellets were lysed with RIPA buffer (Sigma R0278) supplemented with Halt protease inhibitor cocktail (Thermo Fisher 78445) and clarified by centrifugation (16,000 g, 10 min, 4° C.). Protein concentration was determined by BCA assay (Thermo Fisher). Proteins were denatured in 1×LDS Buffer and 2.5% beta-mercaptoethanol (X) for 10 min at 70° C., separated on Bolt 4-12% Bis-Tris Plus polyacrylamide gels (Thermo Fisher), transferred to PVDF membranes using the iBlot 2 Dry Blotting System, and blocked with 0.1% casein-PBS (Bio-Rad) for 1 h at room temperature. The blots were incubated with primary antibodies overnight at 4° C. in PBS containing 0.1% casein and 0.2% Tween-20. Antibodies used: rabbit anti-CK2a1 (Bethyl #, 1:5000), rabbit anti-CK2a2 (Bethyl #, 1:5000), mouse anti-GAPDH (Fitzgerald #10-1501, 1:20,000), mouse anti-NF-KB (CST #6956S, 1:1000), pNF-KB S529 (TFS #14-9864-82, 1:100), LC3B (CST 2775, 1:1000), ACO2 (CST 6922, 1:1000), rabbit HMGB1 (Novus #NB1002322, 1:1000), mouse anti-IκBα (CST #4814S, 1:1000), mouse anti-IκBa pS32 (SC #8404, 1:500), HA-tag (Bethyl #A190-108A, 1:20000). […] The blots were imaged using the Odyssey CLx imaging system and blots were analyzed on the ImageStudio software (LI-COR). […]

NF-κB pS529 = test: Immunofluorescence of NF-κB and NF-κB pS529 in activated astrocytes; format: cell-based, human
Description: Immunotluorescence. […] After treatment, cells were fixed with 4% paraformaldehyde solution for 20 min at room temperature and washed 3× with DPBS for 10 min each. The cells were permeabilized using 5% horse serum and 10% Triton X in DPBS for 15 min at room temperature and blocked with 5% horse serum in PBS for 30 min at room temperature. Cells were incubated with primary antibodies in blocking buffer either overnight at 4° C. or for 2 hours at room temperature. After incubation, cells were washed 3× with PBS, blocked using 5% horse serum in PBS for 30 min at room temperature, and incubated with Cy3 red-labeled or AF488 green-labeled secondary antibodies diluted in blocking buffer for 1 hour at room temperature. The cells were washed once with PBS for 10 min, then counter-stained with DAPI. The cells were washed 3× with PBS and mounted with glass coverslips and Immu-Mount solution. Images were obtained with the Zeiss fluorescent microscope. The following primary antibodies were used: rabbit anti-NF-κB (1:400; CST), mouse anti-phospho NF-κB S529 (20 ug/ml; Thermo Fisher), rabbit anti-CK2A1 (1:500; Bethyl), mouse anti-IKb alpha (1:400; CST), mouse anti-phospho IKb alpha (1:50; Santa Cruz), rabbit anti-phospho CK2A1 (1:25; Thermo Fisher), rabbit anti-phospho Cdc37 (1:50; Novus), mouse anti-phospho NF-κB S529 (1:25; R&D), rabbit anti-Cdc37 (1:100; CST), mouse anti-SQSTM1 (1:50; Santa Cruz), anti rabbit-phospho NF-κB S536 (1:1600; CST), anti rabbit-Akt (pan) (1:400; CST), anti mouse-phospho Akt S473 (1:500; Sigma).
To investigate the potential effects of CK2 activity on NF-κB, NF-κB and NF-κB pS529 were measured by immunofluorescence in activated astrocytes. […] At this timepoint, NF-κB pS529 levels were similar across all treatments, possibly as a result of slower turnover by pNF-κB species.

468 human kinases = conditions: testing concentration of 1 μM; cited from earlier work
AKT pS473 = test: Immunofluorescence of AKT pS473 in IL1β-stimulated primary astrocytes; format: cell-based; conditions: IL1-β for 5 h
Description: (§1) Immunotluorescence. […] After treatment, cells were fixed with 4% paraformaldehyde solution for 20 min at room temperature and washed 3× with DPBS for 10 min each. The cells were permeabilized using 5% horse serum and 10% Triton X in DPBS for 15 min at room temperature and blocked with 5% horse serum in PBS for 30 min at room temperature. Cells were incubated with primary antibodies in blocking buffer either overnight at 4° C. or for 2 hours at room temperature. After incubation, cells were washed 3× with PBS, blocked using 5% horse serum in PBS for 30 min at room temperature, and incubated with Cy3 red-labeled or AF488 green-labeled secondary antibodies diluted in blocking buffer for 1 hour at room temperature. The cells were washed once with PBS for 10 min, then counter-stained with DAPI. The cells were washed 3× with PBS and mounted with glass coverslips and Immu-Mount solution. Images were obtained with the Zeiss fluorescent microscope. […]

[1] = system: IL6 and IL8 expression in astrocytes; test: Activation assay, ddPCR of cytokine expression in IL1-β-activated astrocytes; format: cell-based, human; conditions: 5 h treatment
Description: Activation assays and ddPCR. HCA or H1-derived astrocytes were treated with vehicle (DMSO) or 20 μM compound and stimulated with IL1-B 10 ng/mL for 5 h. Cells were scraped into RNA-Bee and total RNA was purified using the Direct-zol RNA kit (Zymo Research). RNA concentration was measured using Nanodrop and RNA was reverse transcribed into cDNA using the High Capacity cDNA Reverse Transcriptase Kit (Applied Biosystems). Reaction mixes consisting of TaqMan FAM probe (IL6, IL8, CSNK2A1, CSNK2A2), control TaqMan ACTB-VIC probe (TFS 4326315E), ddPCR Supermix for Probes (Bio-Rad 186-3024), and cDNA were formed into oil droplets using the QX200 Droplet Generator. After amplification (Bio-Rad C1000 Touch Thermal Cycler) according to manufacturer's instructions, the plate was read in the QX200 Droplet Reader.

CK2 Y255 = test: Immunofluorescence of CK2 Y255 phosphorylation in nuclei of primary human astrocytes; format: cell-based; conditions: 20 μM, 5 h
Description: as §1

CK2 [2] = test: CK2 kinase assay in postmortem brain lysates (Csox peptide); format: biochemical, human; conditions: pretreatment with 20 μM for 30 min
Description: Kinase assays. In vitro kinase assays were run using the Cysteine-Sox-Kinase Sensor AQT0696, 96 assay Kit (AssayQuant Tech, CSKS-AQT0696). Compound stocks (1.25×) at concentrations in a 2-fold dilution series were prepared in kinase reaction mixes and added in duplicate to a 384-well white-bottom NBS plates (Corning X) at 20 μL/well. Then, 5 μL active recombinant human CK2a1 kinase (Thermo Fisher PV3248, 5× in Kinase Dilution Buffer) was added to each well, quickly mixed by rotation, and incubated for 5 h at 30° C., with fluorescence readings taken every 3 min (excitation λ=365 nm, emission λ=495-505 nm) on a Promega GloMax Discover Microplate Reader. The final reaction conditions contained 10 μM AQT0696 Csox peptide, 1 mM ATP, 54 mM HEPES pH 7.5, 1.2 mM DTT, 0.012% Brij-35, 0.52 mM EGTA, 1% glycerol, 0.2 mg/mL BSA, 10 mM MgCl2, and 20 nM CK2a1. Slopes corresponding to linear reaction rates were obtained for each compound concentration (RFU/sec), normalized to DMSO controls, and IC50 values were determined by applying the dose response non-linear regression model in GraphPad Prism. […] After sonication and clarification, protein concentration was measured by BCA Assay. CK2 activity was measured as described above, except lysates were used instead of purified kinase at 2 μL/well (˜0.3-0.4 ug protein per reaction). […]

CK2 [3] = test: Target engagement in mouse brain homogenates (Cyclex CK2 ELISA kit); format: in vivo; conditions: single dose 25.6 mg/kg i.p., in comparison to FNH79
Description: Animals. All animal procedures were approved by the Institutional Animal Care and Use Committee of The Salk Institute for Biological Studies. Wildtype male C57BL/6 mice (2-3 months old) were housed under standard 12-h light/dark cycles with free access to food and water. IN2.2 or vehicle (3% hydroxypropylmethylcellulose, HPMC) was injected as a single dose (25.6 mg/kg) i.p. mice (n=6 and n=3 controls). Blood was collected at t=0, 0.5, 1, 2, 4, 8, 24 via retro-orbital bleeding and allowed to clot at room temperature to separate serum and clarified. At the final timepoint, mice were anesthetized with ketamine and tissues were harvested. Drug concentrations in serum and tissues were determined by LC/MS-MS. Target engagement in the brain was determined in brain homogenates from treated animals using the Cyclex CK2 ELISA kit. […] Tolerability was assessed mice (mean±s.d., n=5) by injecting with JKT56/IN3.2 daily at 20 mg/kg and monitoring closely for any signs of toxicity based on body weight changes and behavior/appearance (e.g. signs of distress, rough coat, squinty eyes, hunched posture).
IN2.2 or vehicle (3% wt/wt hydroxpropymethylcellulose aqueous solution) was injected as a single dose (25.6 mg/kg) i.p. in 2-3 month old C57Bl/6Nhsd mice (n=6 and n=3 controls). […] Drug concentrations in serum and tissues were determined by LC/MS-MS. […]

BBB organoids = test: BBB permeability and anti-inflammatory activity in BBB organoids; format: cell-based; conditions: 6.7 μM, 3 days, compared to FNH79 at 20 μM
Description: BBB permeability of IN2.2 was also determined in BBB organoids (Cho et al., Nat Commun 2017, 8:15623). Pools of -50 organoids were treated for 3 days with IL1-β and DMSO or compounds (FNH79 at 20 μM, IN2.2 at 6.7 μM) and collected in RNA-Bee reagent (Amsbio). qPCR for IL6 and IL8 expression was performed (mean±s.d., n=3).

With `O=C(O)c1ccc2c(c1)nc(Nc1cccc(Cl)c1)c1ccncc12` [CX4945] the “IκB S32 levels” value (IκB S32) was “decreased”, the “IL1-β-induced increase of NF-κB nuclear intensity” value (NF-κB pS529; after 1 h) was “blocked” and the “pNF-κB nuclear intensity relative to total NF-κB” value (NF-κB pS529; after 5 hours) was “reduced”. The “number of other kinases inhibited >90%” value (468 human kinases) was 28, the “AKT pS473 levels” value (AKT pS473) was “reduced” and the “expression of IL6 and IL8 in IL1-β-activated astrocytes” value [1] was “successfully blocked”. For the same compound, the pCK2/CK2 in nuclei (CK2 Y255) was “reduced” and the “CK2-specific fluorescence of phosphorylated Csox peptide in brain lysates” value (CK2 [2]) was “blocked”.
With `COc1cc(-c2cc(=O)c3cc(Br)cc(Br)c3o2)ncc1O` [IN2.2] the “target engagement in brain” value (CK2 [3]) was “superior target engagement”, the “IL6 and IL8 expression” value (BBB organoids; IL1-β) was “reduction” and the BBB permeability (BBB organoids) was “superior permeability”.
